Laboratory results published in patent publication US8143244B2, “Cyclopropyl fused indolobenzazepine HCV NS5B inhibitors” (Bristol-Myers Squibb Company, priority 2009, dated 2012).

Experiments:
HCV replicon [1] = experiment: HCV replicon FRET / luciferase assay (NeoLuc); format: cell-based, HCV genotype 1b; details: HCV replicon cells
Description: FRET Assay Preparation. To perform the HCV FRET screening assay, 96-well cell culture plates were used. The FRET peptide (Anaspec, Inc.) (Taliani et al., Anal. Biochem. 1996, 240, 60-67) contains a fluorescence donor, EDANS, near one end of the peptide and an acceptor, DABCYL, near the other end. The fluorescence of the peptide is quenched by […] resonance energy transfer (RET) between the donor and the acceptor, but as the NS3 protease cleaves the peptide the products are released from RET quenching and the fluorescence of the donor becomes apparent. The assay reagent was made as follows: 5× cell Luciferase cell culture lysis reagent from Promega (#E153A) diluted to 1× with dH2O, NaCl added to 150 mM final, the FRET peptide diluted to 20 μM final from a 2 mM stock.
To prepare plates, HCV replicon cells, with or without a Renilla luciferase reporter gene, were trypsinized and placed into each well of a 96-well plate with titrated test compounds added in columns 3 through 12; columns 1 and 2 contained a control compound (HCV protease inhibitor), and the bottom row contained cells without compound. The plates were then placed in a CO2 incubator at 37° C.
Assays. Subsequent to addition of the test compounds described above (FRET Assay Preparation), at various times the plate was removed and Alamar blue solution (Trek Diagnostics, #00-100) was added per well as a measure of cellular toxicity. After reading in a Cytoflour 4000 instrument (PE Biosystems), plates were rinsed with PBS and then used for FRET assay by the addition of 30 ul of the FRET peptide assay reagent described above (FRET Assay Preparation) per well. The plate was then placed into the Cytoflour 4000 instrument which had been set to 340 excite/490 emission, automatic mode for 20 cycles and the plate read in a kinetic mode. Typically, the signal to noise using an endpoint analysis after the reads was at least three-fold. Alternatively, after Alamar blue reading, plates were rinsed with PBS, 50 ul of DMEM (high glucose) without phenol red was added and plates were then used for luciferase assay using the Promega Dual-Glo Luciferase Assay System,
Compound analysis was deteiniined by quantification of the relative HCV replicon inhibition and the relative cytotoxicity values. To calculate cytoxicity values, the average Alamar Blue fluorescence signals from the control wells were set as 100% non-toxic. The individual signals in each of the compound test wells were then divided by the average control signal and multiplied by 100% to determine […]. To calculate the HCV replicon inhibition values, an average background value was obtained from the two wells containing the highest amount of HCV protease inhibitor at the end of the assay period. These numbers were similar to those obtained from naïve Huh-7 cells.
The background numbers were then subtracted from the average signal obtained from the control wells and this number was used as 100% activity. The individual signals in each of the compound test wells were then divided by the averaged control values after background subtraction and multiplied by 100% to determine percent activity. EC50 values for a protease inhibitor titration were calculated as the concentration which caused a 50% reduction in FRET or luciferase activity. The two numbers generated for the compound plate, percent cytoxicity and percent activity were used to determine compounds of interest for further analysis.

HCV replicon [2] = experiment: HCV Replicon Luciferase Reporter Assay (LE Assay); format: cell-based, HCV genotype 1b
Description: The HCV replicon luciferase assay was developed to monitor the inhibitory effects of compounds described in the disclosure on HCV viral replication. Utilization of a replicon luciferase reporter assay was first described by Krieger et al (Krieger N, Lohmann V, and Bartenschlager R, J. Virol. 75(10):4614-4624 (2001)). HUH-7 cells, constitutively expressing the HCV replicon, were grown in Dulbeccors Modified Eagle Media (DMEM) (Gibco-BRL) containing 10% Fetal calf serum (FCS) (Sigma) and 1 mg/ml G418 (Gibco-BRL). Compounds were serially diluted 3 folds in DMSO for a twenty-point titration and subsequently transferred to sterile 384-well tissue-culture treated plates (Coming cat #3571). The plates were then seeded with 50 μl of cells at a density of 3.0×10^3 cells/well in DMEM containing 4% FCS (final DMSO concentration at 0.5%). After 3 days incubation at 37° C., cells were analyzed for Renilla Luciferase activity using the EnduRen as substrate (Promega cat #E6485). The EnduRen substrate was diluted in DMEM and then added to the plates to a final concentration of 7.5 μM. The plates were incubated for 2 hrs at 37° C. and then read immediately for 30 seconds with Viewlux Imager (PerkinElmer) using a luminescence program. To assess cytotoxicity of compounds, CC50 values were generated by multiplexing the EnduRen-containing plates with Cell Titer-Blue (Promega, cat #G8082). 3 μl of Cell-Titer Blue was added to each well and incubated for 8 hrs at 37° C. The fluorescence signal from each well was read, with an excitation wavelength at 525/10 nm and an emission wavelength of 598/10 nm, using the Viewlux Imager.

[3] = Hepatitis C virus, genotype 1b, read-out: NeoLuc EC50, Table 1, genotype 1b
[4] = Hepatitis C virus, genotype 1b, Huh-7, read-out: LE NeoLuc EC50, Table 1, HUH-7 cells, genotype 1b replicon
[5] = Hepatitis C virus, Table 2, read-out: NeoLuc EC50
[6] = Hepatitis C virus, Huh-7, Table 2, HUH-7 cells, read-out: LE NeoLuc EC50
[7] = Table 2, HUH-7 cells, read-out: LE NeoLuc EC50

SMILES	EC50 (HCV replicon [1]; [3])	EC50 (HCV replicon [2]; [4])	further results
C=C(C)S(=O)(=O)NC(=O)c1ccc2c(C3CCCCC3)c3n(c2c1)C[C@@]1(C(=O)N2CC45COCC4(CN(C)C5)C2)C[C@H]1c1cc(OC)ccc1-3 (some centres unmarked)	0.0019 to 0.5 µM	0.0019 to 0.5 µM	
COc1ccc2c(c1)[C@@H]1C[C@]1(C(=O)N1CC34CNCC3(CN(C)C4)C1)Cn1c-2c(C2CCCCC2)c2ccc(C(=O)NS(=O)(=O)C(C)C)cc21 (some centres unmarked)	0.0019 to 0.5 µM	0.5 to 1 µM	
COc1ccc2c(c1)C=C(C(=O)N1CC34CN(C)CC3(CN(C)C4)C1)Cn1c-2c(C2CCCCC2)c2ccc(C(=O)NS(=O)(=O)N(C)C)cc21 (centres unmarked)	0.0019 to 0.5 µM	0.0019 to 0.5 µM	
COc1ccc2c(c1)C1CC1(C(=O)N1CC34CNCC3(CN(C)C4)C1)Cn1c-2c(C2CCCCC2)c2ccc(C(=O)NS(=O)(=O)N(C)C)cc21 (centres unmarked)	0.0019 to 0.5 µM	0.0019 to 0.5 µM	
COc1ccc2c(c1)C1CC1(C(=O)N1CC34CN(C)CC3(CN(C)C4)C1)Cn1c-2c(C2CCCCC2)c2ccc(C(=O)NS(=O)(=O)N(C)C)cc21 (centres unmarked)	0.0019 to 0.5 µM	0.0019 to 0.5 µM	
COc1ccc2c(c1)[C@@H]1C[C@]1(C(=O)N1CC34CN(C)CC3(CN(C)C4)C1)Cn1c-2c(C2CCCCC2)c2ccc(C(=O)NS(=O)(=O)C(C)C)cc21 (some centres unmarked)	0.0019 to 0.5 µM	0.0019 to 0.5 µM	
COc1ccc2c(c1)[C@@H]1C[C@]1(C(=O)N1CC34CNCC3(COC4)C1)Cn1c-2c(C2CCCCC2)c2ccc(C(=O)NS(=O)(=O)C(C)C)cc21 (some centres unmarked)	0.0019 to 0.5 µM	0.0019 to 0.5 µM	
COc1ccc2c(c1)[C@@H]1C[C@]1(C(=O)N1CC34COCC3(CN(C)C4)C1)Cn1c-2c(C2CCCCC2)c2ccc(C(=O)NS(=O)(=O)C(C)C)cc21 (some centres unmarked)	0.0019 to 0.5 µM	0.0019 to 0.5 µM	
COc1ccc2c(c1)C1CC1(C(=O)N1CC34CNCC3(COC4)C1)Cn1c-2c(C2CCCCC2)c2ccc(C(=O)NS(=O)(=O)N(C)C)cc21 (centres unmarked)	0.0019 to 0.5 µM	0.0019 to 0.5 µM	
COc1ccc2c(c1)C=C(C(=O)N1CC34CNCC3(COC4)C1)Cn1c-2c(C2CCCCC2)c2ccc(C(=O)NS(=O)(=O)N(C)C)cc21 (centres unmarked)	0.0019 to 0.5 µM	0.0019 to 0.5 µM	
COc1ccc2c(c1)C=C(C(=O)N1CC34CNCC3(COC4)C1)Cn1c-2c(C2CCCCC2)c2ccc(C(=O)NS(=O)(=O)C3CC3)cc21 (centres unmarked)	0.0019 to 0.5 µM	0.0019 to 0.5 µM	
COc1ccc2c(c1)C=C(C(=O)N1CC34COCC3(CN(C)C4)C1)Cn1c-2c(C2CCCCC2)c2ccc(C(=O)NS(=O)(=O)N(C)C)cc21 (centres unmarked)	0.0019 to 0.5 µM	0.0019 to 0.5 µM	
COc1ccc2c(c1)C=C(C(=O)N1CC34COCC3(CN(C)C4)C1)Cn1c-2c(C2CCCCC2)c2ccc(C(=O)NS(=O)(=O)C3CC3)cc21 (centres unmarked)	0.0019 to 0.5 µM	0.0019 to 0.5 µM	
CCN1CC23COCC2(C1)CN(C(=O)[C@]12C[C@H]1c1cc(OC)ccc1-c1c(C4CCCCC4)c4ccc(C(=O)NS(=O)(=O)C(C)C)cc4n1C2)C3 (some centres unmarked)	0.0019 to 0.5 µM	0.0019 to 0.5 µM	
COc1ccc2c(c1)CC(C(=O)N1CC34CNCC3(COC4)C1)Cn1c-2c(C2CCCCC2)c2ccc(C(=O)NS(=O)(=O)C3CC3)cc21 (centres unmarked)	> 1 µM	0.5 to 5 µM	
COc1ccc2c(c1)CC(C(=O)N1CC34CN(C)CC3(CN(C)C4)C1)Cn1c-2c(C2CCCCC2)c2ccc(C(=O)NS(=O)(=O)N(C)C)cc21 (centres unmarked)	0.0019 to 0.5 µM	0.0019 to 0.5 µM	
COc1ccc2c(c1)C1CC1(C(=O)N1CC34COCC3(CN(C(C)=O)C4)C1)Cn1c-2c(C2CCCCC2)c2ccc(C(=O)NS(=O)(=O)CC(C)C)cc21 (centres unmarked)	0.0019 to 0.5 µM	0.5 to 1 µM	
COc1ccc2c(c1)CC(C(=O)N1CC34CNCC3(CN(C)C4)C1)Cn1c-2c(C2CCCCC2)c2ccc(C(=O)NS(=O)(=O)C3CC3)cc21 (centres unmarked)	> 1 µM	0.5 to 1 µM	
COc1ccc2c(c1)CC(C(=O)N1CC34COCC3(CN(C)C4)C1)Cn1c-2c(C2CCCCC2)c2ccc(C(=O)NS(=O)(=O)C3CC3)cc21 (centres unmarked)	0.0019 to 0.5 µM	0.0019 to 0.5 µM	
COc1ccc2c(c1)[C@@H]1C[C@]1(C(=O)N1CC34COCC3(C1)CN(C1CC1)C4)Cn1c-2c(C2CCCCC2)c2ccc(C(=O)NS(=O)(=O)C(C)C)cc21 (some centres unmarked)	0.0019 to 0.5 µM	0.0019 to 0.5 µM	
COc1ccc2c(c1)[C@@H]1C[C@]1(C(=O)N1CC34COCC3(C1)N(C(C)=O)C4)Cn1c-2c(C2CCCCC2)c2ccc(C(=O)NS(=O)(=O)N(C)C)cc21 (some centres unmarked)	0.0019 to 0.5 µM	0.0019 to 0.5 µM	
COc1ccc2c(c1)C=C(C(=O)N1CC34COCC3(C1)N(C(C)=O)C4)Cn1c-2c(C2CCCCC2)c2ccc(C(=O)NS(=O)(=O)N(C)C)cc21 (centres unmarked)	0.0019 to 0.5 µM	0.0019 to 0.5 µM	
COc1ccc2c(c1)C1CC1(C(=O)N1CC34CNCC3(CN(C)C4)C1)Cn1c-2c(C2CCCCC2)c2ccc(C(=O)NS(=O)(=O)C3CC3)cc21 (centres unmarked)			EC50 (HCV replicon [1]; [5]): > 1 µM; EC50 (HCV replicon [2]; [6]): 2.1 µM
COc1ccc2c(c1)C1CC1(C(=O)N1CC34COCC3(CN(C)C4)C1)Cn1c-2c(C2CCCCC2)c2ccc(C(=O)NS(=O)(=O)N(C)C)cc21 (centres unmarked) [drawing 61]	0.0019 to 0.5 µM	0.0019 to 0.5 µM	
COc1ccc2c(c1)[C@@H]1C[C@]1(C(=O)N1CC34COCC3(C1)N(C(C)=O)C4)Cn1c-2c(C2CCCCC2)c2ccc(C(=O)NS(=O)(=O)C(C)C)cc21 (some centres unmarked) [drawing 73]	0.0019 to 0.5 µM	0.0019 to 0.5 µM	
COc1ccc2c(c1)C1CC1(C(=O)N1CC34COCC3(CN(C)C4)C1)Cn1c-2c(C2CCCCC2)c2ccc(C(=O)NS(=O)(=O)N(C)C)cc21 (centres unmarked) [drawing 106]			EC50 (HCV replicon [1]; [5]): 0.02 µM; EC50 (HCV replicon [2]; [6]): 0.04 µM
COc1ccc2c(c1)[C@@H]1C[C@]1(C(=O)N1CC34COCC3(C1)N(C(C)=O)C4)Cn1c-2c(C2CCCCC2)c2ccc(C(=O)NS(=O)(=O)C(C)C)cc21 (some centres unmarked) [drawing 109]			EC50 (HCV replicon [1]; Table 2, read-out: NeoLuc EC50): 0.13 µM; EC50 (HCV replicon [2]; [7]): 0.09 µM
COc1ccc2c(c1)[C@@H]1C[C@]1(C(=O)N1CC34COCC3(C1)N(C(C)=O)C4)Cn1c-2c(C2CCCCC2)c2ccc(C(=O)NS(=O)(=O)C(C)C)cc21 (some centres unmarked) [drawing 110]			EC50 (HCV replicon [1]; Table 2, read-out: NeoLuc EC50): 0.01 µM; EC50 (HCV replicon [2]; [7]): 0.03 µM
